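Tested at 5 concentrations; 48 h exposure; 96-well plates; endpoints linearly interpolated, else capped at highest concentration. Here, GI50 denotes the concentration required for 50% inhibition of growth.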 Activity calls are given as the source filed them. Rule as the data show it: active = GI50 up to about 1.1 µM and inactive = higher.
Legend:
Test in all cases: NCI anticancer screen, dose series, 48 h
A498 = system: A498
ACHN = system: ACHN
CCRF-CEM = system: CCRF-CEM
COLO 205 = system: COLO 205
HOP-62 = system: HOP-62
HT-29 = system: HT-29
Hs-578T = system: Hs-578T
MCF7 = system: MCF7
Malme-3M = system: Malme-3M
NCI-H522 = system: NCI-H522
NCI/ADR-RES = system: NCI/ADR-RES
OVCAR-3 = system: OVCAR-3
OVCAR-5 = system: OVCAR-5
RPMI-8226 = system: RPMI-8226
SF-268 = system: SF-268
SNB-19 = system: SNB-19
TK-10 = system: TK-10
U-251 = system: U-251
UACC-257 = system: UACC-257
UO-31 = system: UO-31

Measured: GI50

COc1ccc(/C=C2\CCC(Cc3ccccc3)(CN(C)C)C2=O)cc1 (stereo not given)
inactive: A498 58.6 µM | ACHN 82 µM | CCRF-CEM 27.9 µM | COLO 205 37.8 µM | HOP-62 > 100 µM | HT-29 32.9 µM | Hs-578T > 91.2 µM | MCF7 41.8 µM | Malme-3M 42.3 µM | NCI-H522 31.8 µM | NCI/ADR-RES 42.2 µM | OVCAR-3 43.7 µM | OVCAR-5 > 96.2 µM | RPMI-8226 22.2 µM | SF-268 69.5 µM | SNB-19 51.4 µM | TK-10 > 100 µM | U-251 61.7 µM | UACC-257 25.2 µM | UO-31 54.3 µM

CC1(C)C2CCC1(CC(=O)O)C(Cl)C2 (stereo not given)
inactive: A498 > 100 µM | ACHN > 100 µM | CCRF-CEM > 100 µM | COLO 205 > 100 µM | HOP-62 > 100 µM | HT-29 > 100 µM | Hs-578T > 100 µM | MCF7 > 100 µM | Malme-3M > 100 µM | NCI-H522 > 100 µM | NCI/ADR-RES > 100 µM | OVCAR-3 > 100 µM | OVCAR-5 > 100 µM | RPMI-8226 > 100 µM | SF-268 > 100 µM | SNB-19 > 100 µM | TK-10 > 100 µM | U-251 > 100 µM | UACC-257 > 100 µM | UO-31 > 100 µM

From ChEMBL document CHEMBL1201862, “PubChem BioAssay data set” (2004)
